# Assay results: patent US20130065818A1, “Arylamide Compounds And Compositions And Uses Thereof” (POLYMEDIX, priority 2006, published 2013)
# Where two headings read alike, the source gives them in different places.
# Key:
# [1] = test system: Staphylococcus aureus fluoroquinolone-resistant; assay: MIC, 25 ocular isolates, broth microdilution (Example 8); format: cell-based
# Method: (§1) • Mueller-Hinton Broth in tubes was inoculated with 25 ocular isolates of Staphylococcus aureus fluoroquinolone-susceptible, Staphylococcus aureus fluoroquinolone-resistant, Staphylococcus epidermidis (Coagulase-negative Staphylococcus) fluoroquinolone-susceptible, Staphylococcus epidermidis (Coagulase-negative Staphylococcus) fluoroquinolone-resistant, Pseudomonas aeruginosa and Serratia marcescens, plus two controls (Staphylococcus aureus and E. coli) and incubated at 37° C. overnight on a shaker set at 250 rpm.
# (§2) On the day of testing, a 640 μg/ml (1280 μg/ml for Serratia marcescens and Pseudomonas aeruginosa) concentration was prepared from a 1% stock solution in 0.01% acetic acid, 0.2% BSA in polypropylene tubes.
# (§3) Serial doubling dilutions in 0.01% acetic acid, 0.2% BSA in 96 well polypropylene plates, which are used as reservoirs for the inoculation of the test plates, were carried out to obtain serial dilutions of test agents at 10 times the required test concentrations: 640, 320, 160, 80, 40, 20, 10, 5, 2.5, 1.25, and 0.625 μg/ml (1280, 640, 320, 160, 80, 40, 20, 10, 5, 2.5, and 1.25 μg/ml for Serratia marcescens and Pseudomonas aeruginosa).
# (§4) Ten μl of diluted 10×test agents was added to each well of one row of the 96 well polypropylene plates from column 2 to column 12 (column 1 is a control for bacteria alone, with no peptide). Test agent concentrations in columns 2-12 were as follows: 64, 32, 16, 8, 4, 2, 1, 0.5, 0.25, 0.125, and 0.0625 μg/ml (128, 64, 32, 16, 8, 4, 2, 1, 0.5, 0.25, and 0.125 μg/ml for Serratia marcescens and Pseudomonas aeruginosa). The same peptide was in each of the 8 rows. One plate contained dilutions of one test agent and 8 bacterial isolates.
# (§5) On the day of testing, the overnight bacterial broth cultures of Staphylococcus aureus fluoroquinolone-susceptible, Staphylococcus aureus fluoroquinolone-resistant, Staphylococcus epidermidis (Coagulase-negative Staphylococcus) fluoroquinolone-susceptible, Staphylococcus epidermidis (Coagulase-negative Staphylococcus) fluoroquinolone-resistant, Serratia marcescens, and Pseudomonas aeruginosa, plus two controls (Staphylococcus aureus and E. coli) were diluted in 5 ml of trypticase soy broth to yield turbidity equal to a 0.5 McFarland standard. The final inoculum for MIC testing for Staphylococcus aureus fluoroquinolone-susceptible, Staphylococcus aureus fluoroquinolone-resistant, Staphylococcus epidermidis (Coagulase-negative Staphylococcus) fluoroquinolone-susceptible, Staphylococcus epidermidis (Coagulase-negative Staphylococcus) fluoroquinolone-resistant, Serratia marcescens, and Pseudomonas aeruginosa was achieved by placing 0.05 ml of the turbidity adjusted sample to 5 ml of Mueller-Hinton broth.
# (§6) Ninety μl of the bacterial suspensions was dispensed in each well from column 1 to column 12. Each bacterial isolate was placed in one row of a 96 well polypropylene plate containing the test agents. The plates were placed on shaker at 15 minutes at room temperature, and then incubated at 37° C. overnight. MICs were determined visually as the lowest concentration of drug that inhibits visible bacterial growth.
# [2] = test system: Staphylococcus epidermidis (Coagulase-negative Staphylococcus) fluoroquinolone-resistant; assay: as above; format: cell-based
# Method: as §1, §2, §3, §4, §5, §6
smiles,measurement,setting,value
N=C(N)NCCCCC(=O)Nc1cc(C(F)(F)F)cc(NC(=O)c2cc(C(=O)Nc3cc(C(F)(F)F)cc(NC(=O)CCCCNC(=N)N)c3O[C@@H]3CCNC3)ncn2)c1O[C@@H]1CCNC1 [Oligomer 4],MIC50,"[1]; 25 isolates, Row 13",0.25 mg/L
same,MIC90,"[1]; 25 isolates, Row 22",0.5 mg/L
same,Range of MICs,"[1]; 25 isolates, Summary of Results",0.125 to 1.0 µg/mL
same,MIC,"[1]; Staphylococcus aureus, 25 ocular isolates, read-out: Median MIC",≤ 0.25 mg/L
same,MIC,"[1]; Staphylococcus aureus, isolate 1—E504, read-out: MIC",0.25 mg/L
same,MIC,"[1]; Staphylococcus aureus, isolate 2—E475, read-out: MIC",0.25 mg/L
same,MIC,"[1]; Staphylococcus aureus, isolate 3—E442, read-out: MIC",0.25 mg/L
same,MIC,"[1]; Staphylococcus aureus, isolate 4—E427, read-out: MIC",0.5 mg/L
same,MIC,"[1]; Staphylococcus aureus, isolate 5—E425, read-out: MIC",0.25 mg/L
same,MIC,"[1]; Staphylococcus aureus, isolate 6—E424, read-out: MIC",0.25 mg/L
same,MIC,"[1]; Staphylococcus aureus, isolate 7—E417, read-out: MIC",1 mg/L
same,MIC,"[1]; Staphylococcus aureus, isolate 8—E407, read-out: MIC",0.25 mg/L
same,MIC,"[1]; Staphylococcus aureus, isolate 9—E401, read-out: MIC",0.25 mg/L
same,MIC,"[1]; Staphylococcus aureus, isolate 10—K1659, read-out: MIC",0.25 mg/L
same,MIC,"[1]; Staphylococcus aureus, isolate 11—E96, read-out: MIC",0.125 mg/L
same,MIC,"[1]; Staphylococcus aureus, isolate 12—E379, read-out: MIC",0.5 mg/L
same,MIC,"[1]; Staphylococcus aureus, isolate 13—E369, read-out: MIC",0.125 mg/L
same,MIC,"[1]; Staphylococcus aureus, isolate 14—E361, read-out: MIC",0.25 mg/L
same,MIC,"[1]; Staphylococcus aureus, isolate 15—E339, read-out: MIC",0.25 mg/L
same,MIC,"[1]; Staphylococcus aureus, isolate 16—E333, read-out: MIC",0.25 mg/L
same,MIC,"[1]; Staphylococcus aureus, isolate 17—E332, read-out: MIC",0.25 mg/L
same,MIC,"[1]; Staphylococcus aureus, isolate 18—E327, read-out: MIC",0.5 mg/L
same,MIC,"[1]; Staphylococcus aureus, isolate 19—E325, read-out: MIC",0.5 mg/L
same,MIC,"[1]; Staphylococcus aureus, isolate 20—K950, read-out: MIC",0.5 mg/L
same,MIC,"[1]; Staphylococcus aureus, isolate 21—K839, read-out: MIC",0.25 mg/L
same,MIC,"[1]; Staphylococcus aureus, isolate 22—K1679, read-out: MIC",0.25 mg/L
same,MIC,"[1]; Staphylococcus aureus, isolate 23—K1677, read-out: MIC",0.25 mg/L
same,MIC,"[1]; Staphylococcus aureus, isolate 24—K1672, read-out: MIC",0.25 mg/L
same,MIC,"[1]; Staphylococcus aureus, isolate 25—K1670, read-out: MIC",0.25 mg/L
same,MIC,"[1]; Staphylococcus aureus, n=25 per group, read-out: Median MIC",0.25 mg/L
same,MIC50,"[1]; Staphylococcus aureus, 25 isolates, Summary of Results, read-out: MIC50",0.25 mg/L
same,MIC90,"[1]; Staphylococcus aureus, 25 isolates, Summary of Results, read-out: MIC90",0.5 mg/L
same,MIC,"[1]; Staphylococcus aureus, 25 isolates, Summary of Results, read-out: Median MIC",0.25 mg/L
same,MIC50,[1]; n=25 per group,0.25 mg/L
same,MIC90,[1]; n=25 per group,0.5 mg/L
same,Range of MICs,[1]; n=25 per group,0.125 to 1.0 µg/mL
same,"MIC, sorted list for MIC50 and MIC90 Determinations (QRSE-A)","[2]; 25 isolates sorted ascending, Row 1-25, <0.0625 was Replaced with 0.03125",0.25 mg/L
same,MIC50,"[2]; 25 isolates, Row 13",0.125 mg/L
same,MIC90,"[2]; 25 isolates, Row 22",0.25 mg/L
same,Range of MICs,"[2]; 25 isolates, Summary of Results, <0.0625 was Replaced with 0.03125",0.03125 to 0.25 µg/mL
same,MIC,"[2]; Staphylococcus epidermidis, 25 ocular isolates, read-out: Median MIC",≤ 0.25 mg/L
same,MIC,"[2]; Staphylococcus epidermidis, isolate 1—E515, read-out: MIC",0.125 mg/L
same,MIC,"[2]; Staphylococcus epidermidis, isolate 2—E514, read-out: MIC",< 0.0625 mg/L
same,MIC,"[2]; Staphylococcus epidermidis, isolate 3—E513, read-out: MIC",0.125 mg/L
same,MIC,"[2]; Staphylococcus epidermidis, isolate 4—E510, read-out: MIC",< 0.0625 mg/L
same,MIC,"[2]; Staphylococcus epidermidis, isolate 5—E509, read-out: MIC",0.125 mg/L
same,MIC,"[2]; Staphylococcus epidermidis, isolate 6—E508, read-out: MIC",0.125 mg/L
same,MIC,"[2]; Staphylococcus epidermidis, isolate 7—E505, read-out: MIC",0.125 mg/L
same,MIC,"[2]; Staphylococcus epidermidis, isolate 8—E503, read-out: MIC",0.125 mg/L
same,MIC,"[2]; Staphylococcus epidermidis, isolate 9—E502, read-out: MIC",0.125 mg/L
same,MIC,"[2]; Staphylococcus epidermidis, isolate 10—E499, read-out: MIC",0.125 mg/L
same,MIC,"[2]; Staphylococcus epidermidis, isolate 11—E498, read-out: MIC",0.125 mg/L
same,MIC,"[2]; Staphylococcus epidermidis, isolate 12—E494, read-out: MIC",< 0.0625 mg/L
same,MIC,"[2]; Staphylococcus epidermidis, isolate 13—E493, read-out: MIC",0.125 mg/L
same,MIC,"[2]; Staphylococcus epidermidis, isolate 14—E485, read-out: MIC",0.125 mg/L
same,MIC,"[2]; Staphylococcus epidermidis, isolate 15—E487, read-out: MIC",0.125 mg/L
same,MIC,"[2]; Staphylococcus epidermidis, isolate 16—E486, read-out: MIC",< 0.0625 mg/L
same,MIC,"[2]; Staphylococcus epidermidis, isolate 17—E480, read-out: MIC",0.125 mg/L
same,MIC,"[2]; Staphylococcus epidermidis, isolate 18—E475, read-out: MIC",0.25 mg/L
same,MIC,"[2]; Staphylococcus epidermidis, isolate 19—E471, read-out: MIC",0.125 mg/L
same,MIC,"[2]; Staphylococcus epidermidis, isolate 20—E458, read-out: MIC",0.125 mg/L
same,MIC,"[2]; Staphylococcus epidermidis, isolate 21—E452, read-out: MIC",0.25 mg/L
same,MIC,"[2]; Staphylococcus epidermidis, isolate 22—E450, read-out: MIC",0.125 mg/L
same,MIC,"[2]; Staphylococcus epidermidis, isolate 23—E440, read-out: MIC",0.25 mg/L
same,MIC,"[2]; Staphylococcus epidermidis, isolate 24—E446, read-out: MIC",0.125 mg/L
same,MIC,"[2]; Staphylococcus epidermidis, isolate 25—E444, read-out: MIC",0.25 mg/L
same,MIC,"[2]; Staphylococcus epidermidis, n=25 per group, read-out: Median MIC",0.125 mg/L
same,MIC50,"[2]; Staphylococcus epidermidis, 25 isolates, Summary of Results, read-out: MIC50",0.125 mg/L
same,MIC90,"[2]; Staphylococcus epidermidis, 25 isolates, Summary of Results, read-out: MIC90",0.25 mg/L
same,MIC,"[2]; Staphylococcus epidermidis, 25 isolates, Summary of Results, read-out: Median MIC",0.125 mg/L
same,MIC50,[2]; n=25 per group,0.125 mg/L
same,MIC90,[2]; n=25 per group,0.25 mg/L
same,Range of MICs,[2]; n=25 per group,0.03125 to 0.25 µg/mL
